In patent US20240343747A1, “Heteroaryl compounds as inhibitors of TYK2, composition and application thereof” (Accro Bioscience (HK) Limited, priority 2021, published 2024):

Experiments:
[1] = Pharmacokinetic evaluation in rats; type: in vivo, rat; conditions: for plasma exposure and bioavailability in rat (in words): conclusion from Table 10; for AUC / Vd / clearance / half-life / Cmax / Tmax: male, plasma; for AUC / Vd / clearance / half-life / Cmax / Tmax / F: rat
Protocol: The rat pharmacokinetic characteristics of compounds were tested by standard protocols. The candidate compounds were made into clear solution for single intravenous injection (i.v.) and suspension for oral administration (p.o.). Intravenous vehicle is 5% DMSO+10% Solutol+85% Saline. Of which adjusts pH to 3 for B37. While oral vehicle is 0.5% CMCNa for B2 and B22, 5% DMSO+10% Solutol+85% Saline, pH˜3 for B37, 5% DMSO+10% Solutol+85% Saline for B41. The experiment used 6 male rats and 3 rats for intravenous at a dose of 2 mg/kg. Plasma samples were collected at 0 h (before dosing) and 0.083 h, 0.25 h, 0.5 h, 1 h, 2 h, 4 h, 8 h, 24 h after dosing. 3 rats were orally administrated at a dose of 10 mg/kg. Plasma samples were collected at 0 h (before dosing) and 0.25 h, 0.5 h, 1 h, 2 h, 4 h, 6 h, 8 h, 24 h after dosing.
Blood samples were placed in tubes containing K2-EDTA and stored on ice until centrifuged. The blood samples were centrifuged at 6800 g for 6 minutes at 2-8° C. within 1 h after collected, and stored frozen at approximately −80° C.
The analytical results were confirmed using quality control samples for intra-assay variation. The accuracy of >66.7% of the quality control samples and 50% of all QC samples at each concentration level were between 80-120% of the known value(s).
Standard set of parameters including area under the curve (AUC(0-t) and AUC(0-∞)), elimination half-live (T1/2), maximum plasma concentration (Cmax), time to reach maximum plasma concentration (Tmax) were calculated using noncompartmental analysis modules in FDA certified pharmacokinetic program Phoenix WinNonlin 7.0 (Pharsight, USA) by the Study Director.

[2] = target: hERG channel (Homo sapiens (Human), UniProt Q12809); experiment: cell-based
Protocol: Chinese hamster ovary (CHO) cell line, CHO-hERG cells were used in this study. CHO-hERG cells were derived from Sophion Biosciences Inc. (Ballerup, Denmark) in Suzhou, China. The cell reserve fluid is frozen in liquid nitrogen tanks. Each batch of stored cell fluid is tested for mycoplasma contamination. The cells were no longer used after 30 generations.
The whole cell patch clamp technique was used to record hERG current at room temperature. The patch-clamp amplifier outputs signals through […] conversion and 2.9 KHz low-pass filtering. Data records were collected by Patchmaster Pro software.
Cells were planted in a cell recording tank and placed on an inverted microscope platform. One cell in the recording tank was randomly selected for experiment. The perfusion system was fixed on an inverted microscope platform and cells were continuously irrigated with ECS.
Manual patch clamp recording microelectrode was prepared with capillary glass tube, which was filled with intracellular fluid. On the day of the patch clamp test, the electrodes were prepared using a borosilicate glass tube (GC150TF-10, Harvard Apparatus Co. UK). The resistance is between 2-5 MΩ after the electrode is filled with ICS.
The clamping voltage was −80 mV, and the first step was depolarized to +60 mV for 850 ms to open the hERG channel. The voltage is then set to −50 mV and maintained for 1275 ms, resulting in a rebound current or tail current, the peak of which is measured and used for analysis. Finally, the voltage is restored to the clamping voltage (−80 mV). During the test, the command voltage program was repeated every 15 s.
At the beginning of recording the perfusion of the solvent control working solution, the test substance/positive control working solution to be tested can be poured after monitoring the tail current peak until more than 3 scanning curves are stable, until the inhibition of the test substance/positive control working solution to the hERG current peak reaches a stable state. Generally, the most recent three consecutive peak values of the current curve basically coincide as a criterion to judge whether the state is stable. After reaching a stable state, continue to pour one concentration of the test sample. One or more test subjects/positive controls, or multiple concentrations of the same drug, can be tested on a cell, and the different test subjects/positive controls need to be rinsed with a solvent control working fluid until the hERG current returns to more than 80% of its pre-drug level.
The concentration of positive control cisapride was 0.1 μM, and two cells were repeated.

[3] = target: TYK2 JH2 (Homo sapiens (Human), UniProt P29597); experiment: Competitive binding assay (kinase-tagged phage, qPCR), TYK2 JH2
Protocol: For most assays, kinase-tagged T7 phage strains were prepared in an E. coli host derived from the BL21 strain. E. coli were grown to log-phase and infected with T7 phage and incubated with shaking at 32° C. until lysis. The lysates were centrifuged and filtered to remove cell debris. The remaining kinases were produced in HEK-293 cells and subsequently tagged with DNA for qPCR detection. Streptavidin coated magnetic beads were treated with biotinylated small molecule ligands for 30 minutes at room temperature to generate affinity resins for kinase assays. The liganded beads were blocked with excess biotin and washed with blocking buffer (SeaBlock (Pierce), 1% BSA, 0.05% Tween 20, 1 mM DTT) to remove unbound ligand and to reduce non-specific binding. […] Test compounds were prepared as 111X stocks in 100% DMSO. Dissociation constants (Kds) were determined using an 11-point 3-fold compound dilution series with three DMSO control points. All compounds for Kd measurements are distributed by acoustic transfer (non-contact dispensing) in 100% DMSO. The compounds were then diluted directly into the assays such that the final concentration of DMSO was 0.9%. All reactions performed in polypropylene 384-well plate. Each was a final volume of 0.02 ml. The assay plates were incubated at room temperature with shaking for 1 hour and the affinity beads were washed with wash buffer (1×PBS, 0.05% Tween 20). The beads were then re-suspended in elution buffer (1×PBS, 0.05% Tween 20, 0.5 μM nonbiotinylated affinity ligand) and incubated at room temperature with shaking for 30 minutes. The kinase concentration in the eluates was measured by qPCR.
An 11-point 3-fold serial dilution of each test compound was prepared in 100% DMSO at 100× final test concentration and subsequently diluted to 1× in the assay (final DMSO concentration=1%). Most Kds were determined using a compound top concentration=30,000 nM. If the initial Kd determined was <0.5 nM (the lowest concentration tested), the measurement was repeated with a serial dilution starting at a lower top concentration.
Binding constants (Kds) were calculated with a standard dose-response curve using the Hill equation: […]
The Hill Slope was set to −1.
Curves were fitted using a non-linear least square fit with the Levenberg-Marquardt algorithm.

Chain of hERG channel (Q12809 whole entry): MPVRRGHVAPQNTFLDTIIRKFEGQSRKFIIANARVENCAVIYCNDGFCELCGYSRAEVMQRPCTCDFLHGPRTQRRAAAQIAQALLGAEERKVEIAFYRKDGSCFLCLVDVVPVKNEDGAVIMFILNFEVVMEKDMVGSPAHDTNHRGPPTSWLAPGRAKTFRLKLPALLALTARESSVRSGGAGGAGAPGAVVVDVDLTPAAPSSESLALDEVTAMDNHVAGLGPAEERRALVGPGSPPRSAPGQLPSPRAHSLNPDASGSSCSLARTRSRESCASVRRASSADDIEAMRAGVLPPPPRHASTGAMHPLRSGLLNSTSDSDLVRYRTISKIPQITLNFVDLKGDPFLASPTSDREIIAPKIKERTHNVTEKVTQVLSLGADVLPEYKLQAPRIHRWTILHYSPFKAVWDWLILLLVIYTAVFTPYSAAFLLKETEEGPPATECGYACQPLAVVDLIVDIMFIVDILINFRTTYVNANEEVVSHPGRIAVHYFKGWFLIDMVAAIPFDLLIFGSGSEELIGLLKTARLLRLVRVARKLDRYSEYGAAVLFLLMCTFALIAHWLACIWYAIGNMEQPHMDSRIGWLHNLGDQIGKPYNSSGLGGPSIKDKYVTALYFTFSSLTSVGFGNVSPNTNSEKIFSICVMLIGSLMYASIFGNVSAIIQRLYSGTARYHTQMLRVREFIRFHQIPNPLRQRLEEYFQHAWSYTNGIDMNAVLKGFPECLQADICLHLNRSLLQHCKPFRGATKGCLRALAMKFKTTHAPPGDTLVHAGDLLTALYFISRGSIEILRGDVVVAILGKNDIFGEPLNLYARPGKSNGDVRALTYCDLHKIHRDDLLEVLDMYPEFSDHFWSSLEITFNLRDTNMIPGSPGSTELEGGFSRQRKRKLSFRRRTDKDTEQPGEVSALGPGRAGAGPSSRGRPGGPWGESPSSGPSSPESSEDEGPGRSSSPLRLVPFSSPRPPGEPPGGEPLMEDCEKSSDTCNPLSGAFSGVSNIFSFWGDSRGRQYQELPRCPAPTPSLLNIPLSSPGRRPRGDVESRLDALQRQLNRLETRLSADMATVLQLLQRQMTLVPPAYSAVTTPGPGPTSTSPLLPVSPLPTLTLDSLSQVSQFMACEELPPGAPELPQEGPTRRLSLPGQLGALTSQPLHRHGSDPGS
Chain of TYK2 JH2 (P29597 589-875): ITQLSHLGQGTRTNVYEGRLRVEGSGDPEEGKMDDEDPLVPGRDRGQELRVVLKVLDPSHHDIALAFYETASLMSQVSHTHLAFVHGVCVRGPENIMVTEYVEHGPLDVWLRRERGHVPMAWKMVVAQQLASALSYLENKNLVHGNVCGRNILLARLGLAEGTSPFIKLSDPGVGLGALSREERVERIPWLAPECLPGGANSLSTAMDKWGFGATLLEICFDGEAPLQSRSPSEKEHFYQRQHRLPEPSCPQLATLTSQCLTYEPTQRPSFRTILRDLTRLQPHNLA

| SMILES | plasma exposure and bioavailability in rat (in words) [1] | AUC ([1]; iv, i.v. 2 mg/kg) | Vd ([1]; iv, i.v. 2 mg/kg) | clearance ([1]; iv, i.v. 2 mg/kg) | half-life ([1]; iv, i.v. 2 mg/kg) | AUC ([1]; po, p.o. 10 mg/kg) | Cmax ([1]; po, p.o. 10 mg/kg) | Tmax ([1]; po, p.o. 10 mg/kg) | F ([1]; p.o. 10 mg/kg) | IC50 [2] | inhibition on hERG channel (in words) [2] | Kd [3] |
| --- | --- | --- | --- | --- | --- | --- | --- | --- | --- | --- | --- | --- |
| CCC(=O)c1cnc(NC(=O)C2CC2)cc1Nc1cccc(-c2cc(P(C)(C)=O)n(C)n2)c1OC [Compound B2, N-(4-((3-(5-(dimethylphosphoryl)-1-methyl-1H-pyrazol-3-yl)-2-methoxyphenyl)amino)-5-propionylpyridin-2-yl)cyclopropanecarboxamide] | good plasma exposure and bioavailability | 2430 ng·h/mL | 1.5 L/kg | 13.8 mL/min/kg | 1.3 h | 5900 ng·h/mL | 2020 ng/mL | 0.67 h | 49% | > 30000 nM | no inhibition | 0.043 nM |
| [2H]C([2H])([2H])n1nc(-c2cccc(Nc3cc(NC(=O)C4CC4)ncc3C(=O)CC)c2OC)cc1P(C)(C)=O [Compound B22] | – | 2670 ng·h/mL | 1.4 L/kg | 12.7 mL/min/kg | 1.3 h | 2280 ng·h/mL | 694 ng/mL | 1.83 h | 17% | > 30000 nM | no inhibition | 0.063 nM |
| CCC(=O)c1cnc(NC(=O)C2CC2)cc1Nc1cccc(-c2cc(P(=O)(C3CC3)C3CC3)n(C)n2)c1OC [Compound B37, N-(4-((3-(5-(dicyclopropylphosphoryl)-1-methyl-1H-pyrazol-3-yl)-2-methoxyphenyl)amino)-5-propionylpyridin-2-yl)cyclopropanecarboxamide] | good plasma exposure and bioavailability | 3090 ng·h/mL | 0.9 L/kg | 10.9 mL/min/kg | 0.96 h | 9420 ng·h/mL | 1890 ng/mL | 2.05 h | 61% | > 30000 nM | no inhibition | 0.044 nM |
| [2H]C([2H])([2H])NC(=O)c1nnc(NC(=O)C2CC2)cc1Nc1cccc(-c2cc(P(=O)(C3CC3)C3CC3)n(C)n2)c1OC [Compound B41, 6-(cyclopropanecarboxamido)-4-((3-(5-(dicyclopropylphosphoryl)-1-methyl-1H-pyrazol-3-yl)-2-methoxyphenyl)amino)-N-(methyl-d3)pyridazine-3-carboxamide] | good plasma exposure and bioavailability | 2880 ng·h/mL | 1 L/kg | 11.6 mL/min/kg | 1 h | 6900 ng·h/mL | 1800 ng/mL | 2.83 h | 48% | > 30000 nM | no inhibition | – |
